Results as given in patent US9416134B2 (Signal Pharmaceuticals, LLC, priority 2014, dated 2016).
Converted amounts (≈) assume the structure as drawn.

Key:
[1] = Feasibility study on Form 1 (solubility in freeze-drying solvent mixtures); assay type: physicochemical; details: thermodynamic from solid
Method: The freeze drying experiments were performed in 1.8 ml vials. Approximately 20 mg of starting material were weight in a HPLC vial and dissolved in five different solvent mixtures. […] These two experimental samples were freeze-dried in liquid nitrogen, followed by placing the vials in a freeze-dryer for 24 hours. The obtained solid was then harvested and analyzed by XRPD and digital imaging.
Grinding experiments were performed in stainless steel grinding vials, containing 2 stainless steel grinding balls and a frequency of 30 Hz. Following the experiments, XRPD analysis was performed to assess the crystallinity of the materials.

[2] = Water solubility of Form 1 (observation from slurry experiment in water); assay type: physicochemical
Method: After the slurry time, the solids were separated from the solutions by centrifugation, harvested wet and analyzed by XRPD and digital imaging. The solids were then exposed to accelerated aging conditions (2 days at 40° C./75% RH), followed by XRPD re-analysis.
The slurry experiment in water for two weeks at room temperature produced the anhydrous starting material, Form 1.

- solubility ([1]; aqueous with cosolvent or surfactant or cyclodextrin, THF/Water (50/50), 25.1 mg in 1000 μL, not dissolved): < 25 mg/mL
- solubility ([1]; organic solvent or mixture, Ethanol/water (90/10), 24.2 mg in 400 μL, not dissolved): < 60 mg/mL
- solubility ([1]; organic solvent or mixture, TFE/water (90/10), 20.7 mg in 1000 μL, dissolved): 21 mg/mL (≈ 62.4 mM)
- solubility ([1]; organic solvent or mixture, TFE, 21.9 mg in 1000 μL, dissolved): 22 mg/mL (≈ 65.4 mM)
- solubility ([1]; organic solvent or mixture, THF/water (90/10), 24.8 mg in 1000 μL, not dissolved): < 25 mg/mL
- Solubility in water [2]: practically insoluble
SMILES: CCN1C(=O)CNc2ncc(-c3ccc(-c4nc[nH]n4)nc3C)nc21 [Form 1, 1-ethyl-7-(2-methyl-6-(1H-1,2,4-triazol-3-yl)pyridin-3-yl)-3,4-dihydropyrazino[2,3-b]pyrazin-2(1H)-one]
